Laboratory results reported in US11566022B2, “3-(5-methoxy-1-oxoisoindolin-2-yl)piperidine-2,6-dione derivatives and uses thereof” (NOVARTIS AG, priority 2019, dated 2023).
Read-outs that look alike come from different tables or passages of the source.

Molecular target: HiBit-WIZ fusion protein (Homo sapiens, UniProt O95785+Q96SW2)
Experiment: Quantification of WIZ protein levels in HiBit tag fusion protein assay (WIZ HiBit assay in 293T cells)
Format: cell-based
Parameters: Dmax: dose or concentration left out as unconfirmed
Settings: for remaining activity at up to 25 µM / WIZ Amax: DMSO-normalized, curve-fitted percentage of WIZ-HiBit remaining at 25 uM; for remaining activity at up to 25 µM: read-out: WIZ Amax; for DC50: WIZ HiBit assay in 293T cells, 10-point, 5-fold dose response, highest concentration 25 μM, about 18 hours, read-out: WIZ AC50; for % degradation of WIZ (100-Amax): at 25 uM
[1] = HEK-293T, 100 minus Amax, 293T cells, read-out: % degradation of WIZ (100-Amax)

HiBit-WIZ fusion protein, sequence (O95785 whole entry, the tested form may be a part): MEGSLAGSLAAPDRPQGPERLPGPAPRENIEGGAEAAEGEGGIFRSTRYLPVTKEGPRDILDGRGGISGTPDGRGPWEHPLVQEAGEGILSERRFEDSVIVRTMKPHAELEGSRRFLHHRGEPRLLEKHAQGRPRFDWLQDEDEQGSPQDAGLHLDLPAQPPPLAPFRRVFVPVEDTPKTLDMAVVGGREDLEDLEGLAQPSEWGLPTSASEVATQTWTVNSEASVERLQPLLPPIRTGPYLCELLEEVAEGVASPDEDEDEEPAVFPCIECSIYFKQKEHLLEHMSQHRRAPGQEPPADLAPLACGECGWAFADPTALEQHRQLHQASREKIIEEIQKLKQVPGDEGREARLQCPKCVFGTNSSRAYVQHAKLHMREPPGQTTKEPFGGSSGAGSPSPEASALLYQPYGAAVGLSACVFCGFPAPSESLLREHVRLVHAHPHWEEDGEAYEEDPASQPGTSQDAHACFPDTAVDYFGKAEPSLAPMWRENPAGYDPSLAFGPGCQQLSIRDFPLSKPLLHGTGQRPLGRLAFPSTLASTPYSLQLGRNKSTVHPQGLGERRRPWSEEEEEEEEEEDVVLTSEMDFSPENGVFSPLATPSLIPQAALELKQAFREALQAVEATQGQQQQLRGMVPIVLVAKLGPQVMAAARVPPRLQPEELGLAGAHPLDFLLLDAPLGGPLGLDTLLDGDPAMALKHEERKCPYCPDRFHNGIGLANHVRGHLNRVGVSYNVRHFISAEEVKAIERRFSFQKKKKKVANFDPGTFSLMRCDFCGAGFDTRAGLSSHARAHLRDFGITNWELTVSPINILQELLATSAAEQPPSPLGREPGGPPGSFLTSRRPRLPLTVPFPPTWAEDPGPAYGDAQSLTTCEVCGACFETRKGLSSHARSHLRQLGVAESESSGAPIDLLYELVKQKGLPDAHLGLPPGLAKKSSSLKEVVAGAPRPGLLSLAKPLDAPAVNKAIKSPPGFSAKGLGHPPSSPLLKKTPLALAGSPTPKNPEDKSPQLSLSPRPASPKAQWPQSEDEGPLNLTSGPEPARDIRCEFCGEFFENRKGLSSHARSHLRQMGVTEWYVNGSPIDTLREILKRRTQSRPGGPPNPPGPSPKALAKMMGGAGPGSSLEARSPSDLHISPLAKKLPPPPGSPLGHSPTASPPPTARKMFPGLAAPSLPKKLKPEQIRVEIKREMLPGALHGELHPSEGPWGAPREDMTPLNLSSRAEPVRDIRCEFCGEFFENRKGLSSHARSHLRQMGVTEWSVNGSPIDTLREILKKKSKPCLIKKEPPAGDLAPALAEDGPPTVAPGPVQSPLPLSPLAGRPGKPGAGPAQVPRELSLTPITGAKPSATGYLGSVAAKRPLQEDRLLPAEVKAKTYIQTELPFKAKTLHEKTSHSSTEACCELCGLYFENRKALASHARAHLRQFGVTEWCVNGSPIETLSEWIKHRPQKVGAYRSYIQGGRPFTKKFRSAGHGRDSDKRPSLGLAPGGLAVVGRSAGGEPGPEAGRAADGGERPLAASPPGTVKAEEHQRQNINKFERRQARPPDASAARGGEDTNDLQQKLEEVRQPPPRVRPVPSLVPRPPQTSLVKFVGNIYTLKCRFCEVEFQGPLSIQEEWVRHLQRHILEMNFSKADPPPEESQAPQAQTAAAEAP
HiBit-WIZ fusion protein, sequence (Q96SW2 whole entry, the tested form may be a part): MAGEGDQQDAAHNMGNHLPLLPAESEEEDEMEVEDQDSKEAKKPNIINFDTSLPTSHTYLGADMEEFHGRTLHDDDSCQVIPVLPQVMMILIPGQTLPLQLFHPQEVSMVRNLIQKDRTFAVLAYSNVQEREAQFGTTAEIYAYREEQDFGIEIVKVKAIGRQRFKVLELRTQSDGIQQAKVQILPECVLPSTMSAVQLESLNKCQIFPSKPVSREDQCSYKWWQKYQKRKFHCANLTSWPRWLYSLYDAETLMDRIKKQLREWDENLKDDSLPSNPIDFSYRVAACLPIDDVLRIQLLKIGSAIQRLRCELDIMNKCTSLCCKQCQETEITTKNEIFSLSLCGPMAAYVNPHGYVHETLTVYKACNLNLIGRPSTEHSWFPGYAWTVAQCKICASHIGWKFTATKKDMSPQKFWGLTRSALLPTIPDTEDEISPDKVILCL
HiBit-WIZ fusion protein, sequence (Q16531 whole entry partner, the tested form may be a part): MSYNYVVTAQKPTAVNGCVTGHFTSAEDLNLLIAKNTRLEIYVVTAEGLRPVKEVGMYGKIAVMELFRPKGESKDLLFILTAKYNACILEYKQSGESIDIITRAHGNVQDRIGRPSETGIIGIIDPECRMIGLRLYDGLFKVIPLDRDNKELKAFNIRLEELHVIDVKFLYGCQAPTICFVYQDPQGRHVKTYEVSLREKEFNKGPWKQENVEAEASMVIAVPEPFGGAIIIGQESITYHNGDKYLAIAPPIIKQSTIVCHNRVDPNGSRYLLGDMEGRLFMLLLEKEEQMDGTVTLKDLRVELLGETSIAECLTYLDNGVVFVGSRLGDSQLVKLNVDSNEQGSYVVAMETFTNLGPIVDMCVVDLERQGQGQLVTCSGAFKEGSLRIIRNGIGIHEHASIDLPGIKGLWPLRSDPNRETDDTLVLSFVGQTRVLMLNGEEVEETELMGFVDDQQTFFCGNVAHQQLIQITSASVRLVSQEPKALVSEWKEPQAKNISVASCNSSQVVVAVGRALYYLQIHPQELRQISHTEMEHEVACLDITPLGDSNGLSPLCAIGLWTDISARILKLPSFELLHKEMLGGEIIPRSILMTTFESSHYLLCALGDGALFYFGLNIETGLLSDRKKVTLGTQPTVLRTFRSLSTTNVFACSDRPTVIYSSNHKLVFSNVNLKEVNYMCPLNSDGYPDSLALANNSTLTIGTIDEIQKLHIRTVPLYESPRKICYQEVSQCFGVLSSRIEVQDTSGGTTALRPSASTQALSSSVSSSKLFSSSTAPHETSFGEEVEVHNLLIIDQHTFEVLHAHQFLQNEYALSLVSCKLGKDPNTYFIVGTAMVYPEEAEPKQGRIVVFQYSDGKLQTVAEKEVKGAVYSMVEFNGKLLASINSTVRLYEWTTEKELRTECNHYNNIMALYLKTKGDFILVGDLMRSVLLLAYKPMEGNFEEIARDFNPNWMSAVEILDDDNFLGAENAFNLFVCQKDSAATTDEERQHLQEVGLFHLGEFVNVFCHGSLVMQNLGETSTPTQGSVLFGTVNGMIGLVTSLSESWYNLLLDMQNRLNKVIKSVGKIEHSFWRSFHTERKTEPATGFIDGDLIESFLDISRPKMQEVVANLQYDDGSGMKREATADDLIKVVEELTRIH

| Structure (SMILES) | Dmax [1] [%] | remaining activity at up to 25 µM (HEK-293T, 293T cells) [%] | DC50 [nM] | Dmax (HEK-293T, read-out: % degradation of WIZ (100-Amax), 100 minus Amax, 293T cells) [%] | remaining activity (HEK-293T, read-out: WIZ Amax, DMSO-normalized, curve-fitted percentage of WIZ-HiBit remaining at 25 uM, 293T cells) [%] | % degradation of WIZ (100-Amax) (100 minus Amax, 293T cells) [%] | WIZ Amax (293T cells) [%] |
| --- | --- | --- | --- | --- | --- | --- | --- |
| O=C1CCC(N2Cc3cc(OC[C@@H]4CCCCN4C(=O)c4cccc(OC(F)F)c4)ccc3C2=O)C(=O)N1 (stereo partly drawn) [Compound I-72hx] | 5.1 | 94.9 | > 25000 | – | – | – | – |
| CCN1CCOc2cccc(CN3CCCC[C@@H]3COc3ccc4c(c3)CN(C3CCC(=O)NC3=O)C4=O)c21 (stereo partly drawn) [Compound I-179, 3-(5-(((R)-1-((4-ethyl-3,4-dihydro-2H-benzo[b][1,4]oxazin-5-yl)methyl)piperidin-2-yl)methoxy)-1-oxoisoindolin-2-yl)piperidine-2,6-dione] | – | – | 5.7 | 73.9 | 26.1 | – | – |
| COc1cc(C#N)ccc1CN1CCCC[C@@H]1COc1ccc2c(c1)CN(C1CCC(=O)NC1=O)C2=O (stereo partly drawn) [Compound I-50cm] | 67.2 | 32.8 | 1770 | – | – | – | – |
| O=C1CCC(N2Cc3cc(OC[C@@H]4CCCCN4Cc4ccnc(N5CCOCC5)c4)ccc3C2=O)C(=O)N1 (stereo partly drawn) [Compound I-50bn] | 76.2 | 23.8 | 897 | – | – | – | – |
| O=C1CCC(N2Cc3cc(OC[C@@H]4CCCCN4C(=O)c4snnc4-c4ccccc4)ccc3C2=O)C(=O)N1 (stereo partly drawn) [Compound I-72fq] | 0.3 | 99.7 | > 25000 | – | – | – | – |
| Cc1nc(C(F)(F)F)ccc1C(=O)N1CCCC[C@H]1COc1ccc2c(c1)CN(C1CCC(=O)NC1=O)C2=O (stereo partly drawn) [Compound I-72n] | 23.4 | 76.6 | > 25000 | – | – | – | – |
| O=C1CCC(N2Cc3cc(OC[C@H]4CCCCN4Cc4ccccc4OCC(=O)N4CCCCC4)ccc3C2=O)C(=O)N1 (stereo partly drawn) [Compound I-50dq] | 71.2 | 28.8 | 770 | – | – | – | – |
| CC(C)(C)OC(=O)N1CCC(c2ccc(CN3CCCC[C@@H]3COc3ccc4c(c3)CN(C3CCC(=O)NC3=O)C4=O)cc2)CC1 (stereo partly drawn) [Compound I-127, Tert-butyl 4-(4-(((2R)-2-(((2-(2,6-dioxopiperidin-3-yl)-1-oxoisoindolin-5-yl)oxy)methyl)piperidin-1-yl)methyl)phenyl)piperidine-1-carboxylate] | 93.4 | 6.64 | 1.9 | – | – | – | – |
| COC(=O)c1nn(-c2cccc(C(F)(F)F)c2)cc1CN1CCCC[C@@H]1COc1ccc2c(c1)CN(C1CCC(=O)NC1=O)C2=O (stereo partly drawn) [Compound I-50dc] | 39.8 | 60.2 | > 25000 | – | – | – | – |
| CC(C)Oc1ccccc1C(=O)N1CCCC[C@H]1COc1ccc2c(c1)CN(C1CCC(=O)NC1=O)C2=O (stereo partly drawn) [Compound I-72jy] | 11.3 | 88.7 | > 25000 | – | – | – | – |
| Cn1nc(CN2CCCC[C@H]2COc2ccc3c(c2)CN(C2CCC(=O)NC2=O)C3=O)cc1-c1ccccc1 (stereo partly drawn) [Compound I-50bc] | 93.4 | 6.6 | 58 | – | – | – | – |
| CC(C)(C)OC(=O)NC1(CN2CCCC[C@H]2COc2ccc3c(c2)CN(C2CCC(=O)NC2=O)C3=O)CCCC1 (stereo partly drawn) [Compound I-50aq] | 15.4 | 84.6 | > 25000 | – | – | – | – |
| O=C1CCC(N2Cc3cc(OC[C@H]4CCCCN4CC4CCN(Cc5ccccc5)CC4)ccc3C2=O)C(=O)N1 (stereo partly drawn) [Compound I-50bg] | 98 | 2 | 31 | – | – | – | – |
| N#Cc1ccccc1CN1CCCC[C@H]1COc1ccc2c(c1)CN(C1CCC(=O)NC1=O)C2=O (stereo partly drawn) [Compound I-50h] | 59.4 | 40.6 | 13600 | – | – | – | – |
| COc1cc2[nH]nc(CN3CCCC[C@H]3COc3ccc4c(c3)CN(C3CCC(=O)NC3=O)C4=O)c2cc1OCc1ccccc1 (stereo partly drawn) [Compound I-50ae] | 53.1 | 46.9 | > 25000 | – | – | – | – |
| CCN1CCC(F)(F)CC1COc1ccc2c(c1)CN(C1CCC(=O)NC1=O)C2=O (single isomer, unassigned) [I-252 (Isomer 1), 3-(5-((1-ethyl-4,4-difluoropiperidin-2-yl)methoxy)-1-oxoisoindolin-2-yl)piperidine-2,6-dione] | – | – | 50 | – | – | 58.1 | 41.9 |
| O=C1CCC(N2Cc3cc(OC[C@@H]4CCCCN4C(=O)c4ccc(-c5ccc(F)cc5)cn4)ccc3C2=O)C(=O)N1 (stereo partly drawn) [Compound I-72fj] | 63.7 | 36.3 | 3910 | – | – | – | – |
| COc1ccc(-c2cc(C(=O)N3CCCC[C@H]3COc3ccc4c(c3)CN(C3CCC(=O)NC3=O)C4=O)[nH]n2)cc1 (stereo partly drawn) [Compound I-72ai] | 41.6 | 58.4 | > 25000 | – | – | – | – |
| Cn1nnc2cc(CN3CCCC[C@@H]3COc3ccc4c(c3)CN(C3CCC(=O)NC3=O)C4=O)ccc21 (stereo partly drawn) [Compound I-50y] | 85.2 | 14.8 | 179 | – | – | – | – |

| Structure (SMILES) | Dmax [1] [%] | remaining activity at up to 25 µM (HEK-293T, 293T cells) [%] | DC50 [nM] | Dmax (HEK-293T, read-out: % degradation of WIZ (100-Amax), 100 minus Amax, 293T cells) [%] | remaining activity (HEK-293T, read-out: WIZ Amax, DMSO-normalized, curve-fitted percentage of WIZ-HiBit remaining at 25 uM, 293T cells) [%] | % degradation of WIZ (100-Amax) (100 minus Amax, 293T cells) [%] | WIZ Amax (293T cells) [%] |
| --- | --- | --- | --- | --- | --- | --- | --- |
| Cc1ccnc(-c2cc(C(=O)N3CCCC[C@H]3COc3ccc4c(c3)CN(C3CCC(=O)NC3=O)C4=O)ccn2)c1 (stereo partly drawn) [Compound I-72fa] | 5.1 | 94.9 | > 25000 | – | – | – | – |
| CCCCCc1ccc(C(=O)N2CCCC[C@H]2COc2ccc3c(c2)CN(C2CCC(=O)NC2=O)C3=O)cc1 (stereo partly drawn) [Compound I-72t] | 69.9 | 30.1 | 1470 | – | – | – | – |
| O=C1CCC(N2Cc3cc(OC[C@@H]4CCCCN4C(=O)C=C4CCCCC4)ccc3C2=O)C(=O)N1 (stereo partly drawn) [Compound I-72dm] | 11.5 | 88.5 | > 25000 | – | – | – | – |
| Cc1cc(CN2CCCC[C@@H]2COc2ccc3c(c2)CN(C2CCC(=O)NC2=O)C3=O)no1 (stereo partly drawn) [Compound I-50eq] | 88.4 | 11.6 | 272 | – | – | – | – |
| O=C1CCC(N2Cc3cc(OC[C@@H]4CCCCN4Cc4cocn4)ccc3C2=O)C(=O)N1 (stereo partly drawn) [Compound I-50e] | 41.1 | 58.9 | > 25000 | – | – | – | – |
| CCN1C2CCC(C2)C1COc1ccc2c(c1)CN(C1CCC(=O)NC1=O)C2=O (single isomer, unassigned) [I-255 (Isomer 2), 3-(5-((endo-2-ethyl-2-azabicyclo[2.2.1]heptan-3-yl)methoxy)-1-oxoisoindolin-2-yl)piperidine-2,6-dione] | – | – | 98 | – | – | 28.8 | 71.2 |
| O=C1CCC(N2Cc3cc(OC[C@H]4CCCCN4Cc4ccc(N5CCCCC5)cc4)ccc3C2=O)C(=O)N1 (stereo partly drawn) [Compound I-161, 3-(1-oxo-5-(((R)-1-(4-(piperidin-1-yl)benzyl)piperidin-2-yl)methoxy)isoindolin-2-yl)piperidine-2,6-dione] | 91.5 | 8.45 | 0.37 | – | – | – | – |
| O=C1CCC(N2Cc3cc(OC[C@@H]4CCCCN4C(=O)CCc4c[nH]cn4)ccc3C2=O)C(=O)N1 (stereo partly drawn) [Compound I-72gk] | 6.5 | 93.5 | > 25000 | – | – | – | – |
| O=C1CCC(N2Cc3cc(OC[C@@H]4CCCCN4C(=O)c4cnc(N5CCCCC5)s4)ccc3C2=O)C(=O)N1 (stereo partly drawn) [Compound I-72fi] | 70.2 | 29.8 | 2050 | – | – | – | – |
| CO[C@H]1C[C@@H](CN2CCCC[C@@H]2COc2ccc3c(c2)CN(C2CCC(=O)NC2=O)C3=O)C1 (stereo partly drawn) [Compound I-118, 3-(5-(((R)-1-(((1s,3S)-3-methoxycyclobutyl)methyl)piperidin-2-yl)methoxy)-1-oxoisoindolin-2-yl)piperidine-2,6-dione] | 85.4 | 14.6 | 380 | – | – | – | – |
| CC(C)N1CCC(CN2CCCC[C@H]2COc2ccc3c(c2)CN(C2CCC(=O)NC2=O)C3=O)CC1 (stereo partly drawn) [Compound I-50cb] | 74.5 | 25.5 | 5800 | – | – | – | – |
| O=C1CCC(N2Cc3cc(OC[C@@H]4CCCCN4C(=O)C4CCCOC4)ccc3C2=O)C(=O)N1 (stereo partly drawn) [Compound I-72gj] | 2.3 | 97.7 | > 25000 | – | – | – | – |
| O=C1CCC(N2Cc3cc(OC[C@@H]4CCCCN4C(=O)c4ccccc4OC(F)(F)F)ccc3C2=O)C(=O)N1 (stereo partly drawn) [Compound I-72dv] | 13.3 | 86.7 | > 25000 | – | – | – | – |
| O=C1CCC(N2Cc3cc(OC[C@H]4CCCCN4CC4CC4)ccc3C2=O)C(=O)N1 (stereo partly drawn) [Compound I-214, 3-(5-(((R)-1-(cyclopropylmethyl)piperidin-2-yl)methoxy)-1-oxoisoindolin-2-yl)piperidine-2,6-dione] | 82.8 | 17.1 | 32 | – | – | – | – |
| CC#CCCOc1ccc(C(=O)N2CCCC[C@H]2COc2ccc3c(c2)CN(C2CCC(=O)NC2=O)C3=O)cc1 (stereo partly drawn) [Compound I-72ew] | 54.9 | 45.1 | 14600 | – | – | – | – |
| O=C1CCC(N2Cc3cc(OC[C@@H]4CCCCN4Cc4ccc(N5CCCC5)nc4)ccc3C2=O)C(=O)N1 (stereo partly drawn) [Compound I-50ak] | 81.3 | 18.7 | 347 | – | – | – | – |
| O=C1CCC(N2Cc3cc(OC[C@@H]4CCCCN4Cc4ccnc(O)c4)ccc3C2=O)C(=O)N1 (stereo partly drawn) [Compound I-50cv] | 42.6 | 57.4 | > 25000 | – | – | – | – |
| Cc1nnc(-c2ccc(CN3CCCC[C@@H]3COc3ccc4c(c3)CN(C3CCC(=O)NC3=O)C4=O)cc2)o1 (stereo partly drawn) [Compound I-50dv] | 65 | 35 | 2990 | – | – | – | – |
| O=C1CCC(N2Cc3cc(OC[C@H]4CCCCN4Cc4ccc(C5CCN(CC6CCOCC6)CC5)cc4)ccc3C2=O)C(=O)N1 (stereo partly drawn) [Compound I-197, 3-(1-oxo-5-(((R)-1-(4-(1-((tetrahydro-2H-pyran-4-yl)methyl)piperidin-4-yl)benzyl)piperidin-2-yl)methoxy)isoindolin-2-yl)piperidine-2,6-dione] | 51.8 | 48.2 | 56 | – | – | – | – |
